Source: patent publication US10987349B2, “Antitumor agent and bromodomain inhibitor” (FUJIFILM Corporation, priority 2016, dated 2021)

Experiments:
[1] = test system: human acute myeloid leukemia cell line MV4-11; test: Cell growth test (Cell Titer Glo) MV4-11; type: cell-based; details: 3 to 5 days
Source text: (§1) The human undifferentiated thymoma cell line Ty-82 (JCRB), the human acute myeloid leukemia cell lines MV4-11 (ATCC), MOLM-13 (ATCC) and RS4-11 (ATCC), the human lymphoma cell line Raji (JCRB), the human cervical epidermoid carcinoma cell line Hela (JCRB), the human lung adenocarcinoma cell line A549 (ATCC), the human colon cancer cell lines DLD1 (DS Pharma) and HCT116 (DS Pharma), and the human pancreatic cancer cell line MIAPACA-2 (ATCC) were used to carry out a cell growth test.
(§2) Ty-82, MV4-11, MOLM-13, RS4-11, Raji and DLD1 were each seeded in a well plate, in which Roswell Park Memorial Institute (RPMI)-1640 medium supplemented with penicillin/streptomycin and fetal bovine serum (FBS) with a final concentration of 10% was placed. Hela was seeded in Dulbecco's Modified Eagle's medium (DMEM) supplemented with penicillin/streptomycin and FBS with a final concentration of 10%. A549 and MIAPACA-2 were each seeded in a well plate, in which Minimum Essential Medium (MEM) supplemented with penicillin/streptomycin and FBS with a final concentration of 10% was placed. HCT116 was seeded in a well plate, in which McCoy's 5A medium supplemented with penicillin/streptomycin and FBS with a final concentration of 10% was placed.
(§3) Thereafter, a medium containing a test compound serially diluted with DMSO, or DMSO, was added to each well of the plate, in which the cells had been seeded, and the obtained mixture was then cultured under conditions of 37° C. and 5% CO2 for 3 to 5 days. Cell Titer Glo reaction solution (Promega) was added to the culture, and the amount of luminescence was then measured using Envision plate reader (PerkinElmer). Since the amount of luminescence is in proportion to the concentration of adenosine triphosphate (ATP) in cells, the amount of luminescence was used as an indicator of the number of living cells. The growth inhibition percentage of the test compound in each concentration was calculated according to the following equation. Growth inhibition percentage (%)=(amount of luminescence in test compound−added well)/(amount of luminescence in DMSO−added well)×100
The growth inhibition percentage of the test compound in each concentration was plotted by performing a non-linear regression analysis [(log (inhibitor) vs. response—Variable slope (four parameters)], using Graphpad prism 5, and a 50% growth inhibitory concentration [GI50 (nmol/L)] was then calculated.

[2] = test system: human acute myeloid leukemia cell line RS4-11; test: Cell growth test (Cell Titer Glo) RS4-11; type: cell-based; details: RS4-11, Acute myeloid leukemia, 3 to 5 days
Source text: as §1
as §2, with “HCT116 was seeded in a well plate, in which McCoy's 5A medium supplemented with penicillin/streptomycin and FBS with a final concentration of 10% was placed.” left out
as §3, with “well)×100 […]” for “well)×100”

[3] = test system: human colon cancer cell line DLD1; test: Cell growth test (Cell Titer Glo) DLD1; type: cell-based; details: DLD-1, 3 to 5 days
Source text: as §1
as §2, with “HCT116 was seeded in a well plate, in which McCoy's 5A medium supplemented with penicillin/streptomycin and FBS with a final concentration of 10% was placed.” left out
as §3, with “well)×100 […]” for “well)×100”

[4] = test system: human pancreatic cancer cell line MIAPACA-2; test: Cell growth test (Cell Titer Glo) MIAPACA-2; type: cell-based; details: MIA PaCa-2, MIAPACA-2, Pancreatic cancer, 3 to 5 days
Source text: as §1
as §2, with “HCT116 was seeded in a well plate, in which McCoy's 5A medium supplemented with penicillin/streptomycin and FBS with a final concentration of 10% was placed.” left out
as §3, with “well)×100 […]” for “well)×100”

[5] = test system: MV4-11 subcutaneously transplanted tumor; test: Medicinal effect test, MV4-11-subcutaneously-transplanted cancer-bearing mouse models, oral administration; type: in vivo; details: orally, once per day, 14 days, BALB/c nu/nu mice
Method: The human acute myeloid leukemia cell line MV4-11 (ATCC) was suspended in a mixture of RPMI-1640 medium and Matrigel (Corning), and the obtained mixture was then subcutaneously transplanted into 6-week-old female BALB/c nu/nu mice (CLEA Japan, Inc.). After confirming that the average tumor volume exceeded 200 mm^3, a test compound was dissolved in a solvent (a 0.5% methyl cellulose aqueous solution or water containing 1 equivalent of hydrochloric acid), and the obtained solution was then orally administered to the mice at a daily dose of 10 to 30 mg/kg, once per day, for 14 days. As a negative control, a solvent administration group involving administration of a 0.5% methyl cellulose aqueous solution was established. The tumor diameter was measured on a daily basis, and the tumor volume was calculated. The tumor volume was calculated by measuring the major axis and minor axis of the tumor and then applying the following equation. Tumor volume (mm^3)=[major axis (mm)×minor axis (mm)×minor axis (mm)]/2
T/C (%) was calculated from the average tumor volume of each group according to the following equation, and medicinal effects were then evaluated. T/C(%)=[1−(average tumor volume of drug administration group)/(average tumor volume of solvent administration group)]×100%

c-Myc protein = test: Expression of c-Myc protein in Ty-82 cells, Western blotting; type: cell-based, human; details: 100 nmol/L, 24 hours
Method: It has been known that the antitumor action of a bromodomain inhibitor is associated with a c-Myc protein. Please refer to, for example, Non-Patent Document 3: Delmore J E et al., Cell, Vol. 146, pp. 904 to 917, 2011. With reference to the method described in Non-Patent Document 3, the ability of the compound of the present example to inhibit the expression of a c-Myc protein in cancer cells was evaluated according to Western blotting.
The human undifferentiated thymoma cell line Ty-82 (JCRB) used in the evaluation was seeded in a 6-well plate, in which an RPMI-1640 medium supplemented with penicillin/streptomycin and FBS with a final concentration of 10% was placed. A medium containing a test compound serially diluted with dimethyl sulfoxide (DMSO), or DMSO, was added to each well of the 6-well plate in which the cells had been seeded, and the obtained mixture was then cultured under conditions of 37° C. and 5% CO2 for 24 hours. Thereafter, the cells were recovered, and were then washed with PBS. After that, Lysis Buffer (10-fold diluted Cell Lysis Buffer (10×) (CST Japan), to which Halt Protease and Phosphatase Inhibitor Cocktail (Thermofisher Scientific) were added) was added to the resulting cells. The above-described cell suspension was subjected to an ultrasonic treatment to disintegrate the cells, and was then centrifuged to recover a supernatant. Sample buffer was added thereto, and the obtained mixture was then heated at 95° C. for 5 minutes.
A sample prepared from the above-described supernatant was loaded at a protein mass of 10 μg/lane on XV PANTERA GEL 7.5%-15% (D.R.C), and was then subjected to electrophoresis. The electrophoresed protein was transcribed on a transcription membrane, and was then inoculated with Anti-Myc antibody (CST, Catalog No. 9402) and then with IRDye® 680LT Donkey anti-Rabbit IgG (H+L) (LI-COR). Using Odessey (LI-COR), the fluorescence intensity at an excitation wavelength of 700 nm was measured, and the expression level of the c-Myc protein was then quantified.

GI50 [1] [µM]	GI50 [2] [µM]	GI50 [3] [µM]	GI50 [4] [µM]	SMILES	T/C (%) ([5]; 10 mg/kg)	T/C (%) ([5]; 30 mg/kg)	expression level of c-Myc protein (c-Myc protein)
0.016	0.066	0.361	1.42	CCn1c(=O)cc(C2CCN(C)CC2)c2cc(C(=O)N(C)c3ccc(C)cc3)ccc21 [Example 14, 1-Ethyl-N-methyl-N-(4-methylphenyl)-4-(1-methylpiperidin-4-yl)-2-oxo-1,2-dihydroquinoline-6-carboxamide]	34	45	significantly reduced
0.008	0.03	0.165	0.307	CCn1c(=O)cc(C2CCN(C)CC2)c2cc(C(=O)N(C)c3ccc4c(c3)CCC4)ccc21 [Example 17, N-(2,3-dihydro-1H-inden-5-yl)-1-ethyl-N-methyl-4-(1-methylpiperidin-4-yl)-2-oxo-1,2-dihydroquinoline-6-carboxamide]	21	49	significantly reduced
0.015	0.085	1.34	0.76	CCn1c(=O)cc(N2CCOCC2)c2cc(-n3c(-c4ccc(Cl)cc4)c[nH]c3=O)ccc21 [Example 245, 6-(5-(4-chlorophenyl)-2-oxo-2,3-dihydro-1H-imidazol-1-yl)-1-ethyl-4-(morpholin-4-yl)quinolin-2(1H)-one]		42	significantly reduced
